Test results as given in US20210252104A1, “ANTIBACTERIAL PEPTIDE MONOMERS AND COMBINATIONS FOR CO-THERAPY” (ARREVUS, INC., priority 2018, published 2021).
In brackets after ≈: the same amount, converted by molar mass. Like-named read-outs stand apart in the source and are kept apart here. Positions of bridges follow the written chain, without caps; N, C: chain ends. Non-standard residues stand in square brackets, D forms with d. Residues, ends and D or L forms follow the SMILES beside them. Chains are numbered I, II in the order given. *: point of attachment. X2 = CN(C)C(=N[C@@H](CCCNC(=N)N)C(=O)*)N(C)C; aThr = C[C@H](O)[C@H](N)C(=O)O; Ac6c = NC1(C(=O)O)CCCCC1; Dab = NCC[C@H](N)C(=O)O; Nva = CCC[C@H](N)C(=O)O; Pentanoyl = CCCCC(=O)*; Butyryl = CCCC(=O)*; NHNH2 = NN*

Key:
[1] = system: E. Coli ATCC 29222
[2] = system: K. Pneumoniae ATCC 13883
[3] = system: A. Baumannii ATCC 19606
[4] = system: P. aeruginosa ATCC 47085
[5] = in vitro; conditions: rat, H-4-II-E cells (ATCC CRL-1548)
[6] = system: K. pneumoniae K97/09; assay: FIC checkerboard assay (combinations); format: cell-based; conditions: for Effect of combining antimicrobials on MIC: K97/09, with imipenem or colistin
[7] = system: A. baumannii strain (BAA-1605); assay: FIC checkerboard assay (combinations); format: cell-based; conditions: with imipenem (or colistin)
[8] = system: K. pneumoniae K97/09
[9] = system: Burkholderia pseudomallei 1026b; format: in vivo; conditions: for B. pseudomallei load in survivals (CFU/spleen) / total number of samples analyzed/samples with CFU > 10^8: day 62; for B. pseudomallei load in survivals (CFU/spleen): mean of samples with <10^8 CFU/spleen; for Number of deaths: every 6 h for 21 days, 10 mice, to day 62; for total number of samples analyzed/samples with CFU > 10^8: spleens
[10] = system: Acinetobacter baumannii BAA-1805 (MACI)
[11] = system: A. baumannii strain (BAA-1605); assay: microbe, parasite or virus in culture; format: cell-based

Q: Which MIC [1] does the source give for `CC(C)C[C@H](NC(=O)[C@H](Cc1ccc(O)cc1)NC(=O)[C@@H]1CCCN1C(=O)[C@H](CCCNC(=N)N)NC(=O)[C@@H]1CCCN1C(=O)[C@H](CCCCN)NC(=O)[C@H](CC(=O)O)NC(=O)[C@@H]1CCCN1C(=O)[C@H](CCCNC(=N)N)NC(=O)C1(N)CCCCC1)C(=O)N1CCC[C@H]1C(=O)N[C@@H](CCCNC(=N)N)C(=O)N1CCC[C@H]1C(=O)N[C@@H](CCCNC(=N)N)C(=O)N1CCC[C@H]1C(=O)N1CCC[C@H]1C(=O)N[C@@H](CCCNC(=N)N)C(=O)N1CCC[C@H]1C(=O)N[C@H](C(=O)N[C@@H](CCCNC(=N)N)C(=O)O)C(C)C` [Example 6, Chex-RPDKPRPYLPRPRPPRPVR-OH] (H-[Ac6c]RPDKPRPYLPRPRPPRPVR-OH) here?
A: 6.7 ± 1.3 µM (≈ 16.6 µg/mL)

Q: What about the MIC [2] of the same compound?
A: 2.0 ± 0.1 µM (≈ 4.95 µg/mL)

Q: What about the MIC [3] of the same compound?
A: >100 µM

Q: And the MIC [4]?
A: >100 µM

Q: What about the CC50 [5] of the same compound?
A: 48.1 ± 3.4 µM

Q: What does the source list for “Ac-RPDKPRPYLPRPRPPRPVR-NH2 [Example 2, Ac-RPDKPRPYLPRPRPPRPVR-NH2]”?
A: MIC [1]: 3.6 ± 0.1 µM; MIC [2]: 2.0 ± 0.2 µM; MIC [3]: >100 µM; MIC [4]: >100 µM

Q: For `CC(C)C[C@H](NC(=O)[C@H](Cc1ccc(O)cc1)NC(=O)[C@@H]1CCCN1C(=O)[C@H](CCCNC(=N)N)NC(=O)[C@@H]1CCCN1C(=O)[C@H](CCCCN)NC(=O)[C@H](CC(=O)O)NC(=O)[C@@H]1CCCN1C(=O)[C@H](CCCNC(=N)N)NC(=O)C1(N)CCCCC1)C(=O)N1CCC[C@H]1C(=O)N[C@@H](CCCNC(=N)N)C(=O)N1CCC[C@H]1C(=O)N[C@@H](CCCNC(=N)N)C(=O)N1CCC[C@H]1C(=O)N1CCC[C@H]1C(=O)N[C@@H](CCCNC(=N)N)C(=O)N1CCC[C@H]1C(=O)N[C@H](C(=O)N[C@@H](CCCNC(=N)N)C(=O)NN)C(C)C` [Example 7, Chex-RPDKPRPYLPRPRPPRPVR-NH-NH2] (H-[Ac6c]RPDKPRPYLPRPRPPRPVR-NHNH2; N-terminus assumed), which MIC [1] is on record?
A: 4.0 ± 1.5 µM (≈ 9.96 µg/mL)

Q: And the MIC [2]?
A: 1.7 ± 0.1 µM (≈ 4.23 µg/mL)

Q: What about the MIC [3] of the same compound?
A: 52.5 ± 9.5 µM (≈ 131 µg/mL)

Q: And the MIC [4]?
A: 28.9 ± 2.7 µM (≈ 72 µg/mL)

Q: What does the source list for `CCCCC(=O)N[C@@H](CCCNC(=N)N)C(=O)N1CCC[C@H]1C(=O)N[C@@H](CC(=O)O)C(=O)N[C@@H](CCCCN)C(=O)N1CCC[C@H]1C(=O)N[C@@H](CCCNC(=N)N)C(=O)N1CCC[C@H]1C(=O)N[C@@H](Cc1ccc(O)cc1)C(=O)N[C@@H](CC(C)C)C(=O)N1CCC[C@H]1C(=O)N[C@@H](CCCNC(=N)N)C(=O)N1CCC[C@H]1C(=O)N[C@@H](CCCNC(=N)N)C(=O)N1CCC[C@H]1C(=O)N1CCC[C@H]1C(=O)N[C@@H](CCCNC(=N)N)C(=O)N1CCC[C@H]1C(=O)N[C@H](C(=O)N[C@@H](CCCNC(=N)N)C(N)=O)C(C)C` [Example 4, Va-RPDKPRPYLPRPRPPRPVR-NH2] (Pentanoyl-RPDKPRPYLPRPRPPRPVR-NH2)?
A: MIC [1]: 5.6 ± 1.8 µM (≈ 13.6 µg/mL); MIC [2]: 2.1 ± 0.0 µM (≈ 5.11 µg/mL); MIC [3]: >100 µM; MIC [4]: 82.0 ± 5.0 µM (≈ 200 µg/mL)

Q: For `CCC[C@H](NC(=O)[C@H](CCC(=O)O)NC(=O)[C@@H](N)[C@H](C)O)C(=O)N[C@H](C(=O)N[C@@H](C)C(=O)N[C@@H](CC(C)C)C(=O)N[C@@H](CO)C(=O)N[C@@H](CCCNC(=N)N)C(=O)NC1(C(N)=O)CCCCC1)C(C)C` [Allo-aca] (H-[aThr]E[Nva]VALSR[Ac6c]-NH2), which “Effect of combining antimicrobials on MIC” value (“Effect” below) [6] is on record?
A: failed to exert any improvement in the MIC values

Q: And the “Effect” value [7]?
A: failed to exert any improvement in the MIC values

Q: And the MIC ([8]; K97/09)?
A: > 256 µg/mL

Q: For `CCCC(=O)N[C@@H](CCCNC(=N)N)C(=O)N1CCC[C@H]1C(=O)N[C@@H](CC(=O)O)C(=O)N[C@@H](CCCCN)C(=O)N1CCC[C@H]1C(=O)N[C@@H](CCCNC(=N)N)C(=O)N1CCC[C@H]1C(=O)N[C@@H](Cc1ccc(O)cc1)C(=O)N[C@@H](CC(C)C)C(=O)N1CCC[C@H]1C(=O)N[C@@H](CCCNC(=N)N)C(=O)N1CCC[C@H]1C(=O)N[C@@H](CCCNC(=N)N)C(=O)N1CCC[C@H]1C(=O)N1CCC[C@H]1C(=O)N[C@@H](CCCNC(=N)N)C(=O)N1CCC[C@H]1C(=O)N[C@H](C(=O)N[C@@H](CCCNC(=N)N)C(N)=O)C(C)C` [Example 3, Bu-RPDKPRPYLPRPRPPRPVR-NH2] (Butyryl-RPDKPRPYLPRPRPPRPVR-NH2), which MIC [1] is on record?
A: 6.5 ± 2.6 µM (≈ 15.7 µg/mL)

Q: What about the MIC [2] of the same compound?
A: 2.2 ± 0.4 µM (≈ 5.32 µg/mL)

Q: And the MIC [3]?
A: >100 µM

Q: What about the MIC [4] of the same compound?
A: 96.3 ± 3.2 µM (≈ 233 µg/mL)

Q: What does the source list for `CC(C)C[C@H](NC(=O)[C@H](Cc1ccc(O)cc1)NC(=O)[C@@H]1CCCN1C(=O)[C@H](CCCNC(=N)N)NC(=O)[C@@H]1CCCN1C(=O)[C@H](CCCCN)NC(=O)[C@H](CC(=O)O)NC(=O)[C@@H]1CCCN1C(=O)[C@H](CCCNC(=N)N)N=C(N(C)C)N(C)C)C(=O)N1CCC[C@H]1C(=O)N[C@@H](CCCNC(=N)N)C(=O)N1CCC[C@H]1C(=O)N[C@@H](CCCNC(=N)N)C(=O)N1CCC[C@H]1C(=O)N1CCC[C@H]1C(=O)N[C@@H](CCCNC(=N)N)C(=O)N1CCC[C@H]1C(=O)N[C@H](C(=O)N[C@@H](CCCNC(=N)N)C(N)=O)C(C)C` [Example 5, Gu-RPDKPRPYLPRPRPPRPVR-NH2] (X2-PDKPRPYLPRPRPPRPVR-NH2; N-terminus assumed)?
A: MIC [1]: 5.8 ± 2.2 µM (≈ 14.2 µg/mL); MIC [2]: 1.5 ± 0.4 µM (≈ 3.67 µg/mL); MIC [3]: >100 µM; MIC [4]: 64.7 ± 2.1 µM (≈ 158 µg/mL)

Q: For `CC(C)(O/N=C(\C(=O)N[C@@H]1C(=O)N2C(C(=O)[O-])=C(C[n+]3ccccc3)CS[C@H]12)c1csc(N)n1)C(=O)O` [Ceftazidime], which “Median survival (days post-challenge)” value ([9]; Ceftazidime 150 mg/kg ip) is on record?
A: 56.5 days post-challenge

Q: And the “B. pseudomallei load in survivals (CFU/spleen)” value ([9]; Ceftazidime 150 mg/kg ip)?
A: 2.6 × 10^5 CFU/spleen

Q: What about the Number of deaths ([9]; Ceftazidime 150 mg/kg ip) of the same compound?
A: 6

Q: And the “total number of samples analyzed/samples with CFU > 10^8” value ([9]; Ceftazidime 150 mg/kg ip)?
A: 4/1

Q: And the “Median survival (days post-challenge)” value ([9]; Ceftazidime 300 mg/kg ip)?
A: (>50% survival)

Q: And the “B. pseudomallei load in survivals (CFU/spleen)” value ([9]; Ceftazidime 300 mg/kg ip)?
A: 2.4 × 10^5 CFU/spleen

Q: And the Number of deaths ([9]; Ceftazidime 300 mg/kg ip)?
A: 3

Q: What about the “total number of samples analyzed/samples with CFU > 10^8” value ([9]; Ceftazidime 300 mg/kg ip) of the same compound?
A: 3/1

Q: And the “Survival rate at the 62-day endpoint” value ([9]; ceftazidime monotherapy 150 mg/kg)?
A: 40%

Q: What about the “Survival rate at the 62-day endpoint” value ([9]; ceftazidime monotherapy 300 mg/kg) of the same compound?
A: 70%

Q: Which “Effect” value [6] does the source give for “I: H-[Ac6c]RPDKPRPYLGRPRPPRPVR[Dab]-NH2 / II: H-[Ac6c]RPDKPRPYLGRPRPPRPVR (amide I:21-II:C) [Gly11, (H-Chex-Arg-Pro-Asp-Lys-Pro-Arg-Pro-Tyr-Leu-Gly-Arg-Pro-Arg-Pro-Pro-Arg-Pro-Val-Arg)2-Dab-NH2]” here?
A: failed to exert any improvement in the MIC values

Q: And the “Effect” value [7]?
A: failed to exert any improvement in the MIC values

Q: What about the “KPC MIC” value ([8]; K97/09) of the same compound?
A: >256 µg/mL

Q: And the “MACI MIC” value ([10]; Acinetobacter baumannii (MACI))?
A: >256 µg/mL

Q: With colistin as the compound, how does the ΣFIC [6] read?
A: 0.08

Q: And the MIC [11]?
A: < 0.5 µg/mL

Q: What about the “KPC MIC” value [8] of the same compound?
A: 64 µg/mL

Q: What about the MIC [8] of the same compound?
A: 64 µg/mL

Q: And the “MACI MIC” value ([10]; Acinetobacter baumannii (MACI))?
A: <0.5 µg/mL

Q: Which “KPC MIC” value ([8]; K97/09) does the source give for “I: H-[Ac6c]RPDKPRPYLPRPRPPRPVR[Dab]-NH2 / II: H-[Ac6c]RPDKPRPYLPRPRPPRPVR (amide I:21-II:C; C-terminus assumed) [Example A3-APO, (H-Chex-Arg-Pro-Asp-Lys-Pro-Arg-Pro-Tyr-Leu-Pro-Arg-Pro-Arg-Pro-Pro-Arg-Pro-Val-Arg)2-Dab]” here?
A: 32 to 64 µg/mL

Q: And the “MACI MIC” value ([10]; BAA-1805)?
A: 32 to 64 µg/mL
